# Test results taken from ChEMBL document CHEMBL1122144, “(+/-)-4-Aryl-4,5-dihydro-3H-1,3-benzodiazepines. 1. Synthesis and evaluation of (+/-)-4,5-dihydro-2,3-dimethyl-4-phenyl-3H-1,3-benzodiazepine and analogues as potential antidepressant agents” (J Med Chem, 1982).
# Key:
# Mus musculus [1] = assay: In vivo antidepressant activity assessed by prevention of tetrabenazine-induced ptosis in mice following i.p. administration.; format: functional
# Mus musculus [2] = assay: Inhibition of pentylenetetrazole lethality in mice (po); format: functional
# Mus musculus [3] = assay: Prevention of amphetamine aggregation toxicity in mice (po); format: functional
# Rattus norvegicus [4] = assay: Potentiation of 5-HT induced behavioral syndrome in pargyline-pretreated rats (ip); format: functional
# Mus musculus [5] = assay: Prevention of tetrabenazine-induced ptosis in mice (ip); format: functional
# Mus musculus [6] = organism: Mus musculus; assay: Compound was tested for physostigmine lethality in mouse.; format: functional
# Mus musculus [7] = assay: Compound was tested in vivo for antagonism of oxotremorine induced -tremors in mouse.; format: functional
# Mus musculus [8] = assay: Compound was tested in vivo for antagonism of oxotremorine induced salivation in mouse.; format: functional
# Mus musculus [9] = assay: Compound was tested in vivo for potential antidepressant activity which was assessed by its prevention of tetrabenazine-induced ptosis in mice; format: functional
# Mus musculus [10] = assay: In vivo for the inhibition of potentiation of yohimbine -induced toxicity in mouse; format: functional
# [11] = Compound was tested in vitro for its ability to displace [3H]quinuclidine benzylate (QNB) from Muscarinic acetylcholine receptor on rat whole brain membranes.; format: cell membranes
# Rattus norvegicus [12] = organism: Rattus norvegicus; assay: In vitro inhibition against neuronal uptake of dopamine in striatum.; format: functional
# Rattus norvegicus [13] = organism: Rattus norvegicus; assay: In vitro inhibition against neuronal uptake of norepinephrine in whole brain; format: functional
# Rattus norvegicus [14] = organism: Rattus norvegicus; assay: In vitro inhibition against neuronal uptake of serotonin in whole brain.; format: functional
# Rattus norvegicus [15] = assay: Compound was screened in vivo for antidepressant activity by 5 HTP potentiation method in rat.; format: functional
# Mus musculus [16] = assay: In vivo inhibition of potentiation of yohimbine -induced toxicity in mouse; format: functional
# Rattus norvegicus [17] = assay: In vivo effective dose for intraperitoneal administration required for the muricidal activity was determined in rat; format: functional; conditions: ip
# Rattus norvegicus [18] = organism: Rattus norvegicus; assay: In vitro inhibition against neuronal uptake of dopamine in rat striatum; format: functional
# Rattus norvegicus [19] = organism: Rattus norvegicus; assay: In vitro inhibition against neuronal uptake of norepinephrine in rat hypothalamus; format: functional
# Rattus norvegicus [20] = organism: Rattus norvegicus; assay: In vitro inhibition against neuronal uptake of norepinephrine in rat whole brain; format: functional
# Rattus norvegicus [21] = assay: Compound was screened in vivo for antidepressant activity by 5 HTP potentiation method in rat; format: functional
# Rattus norvegicus [22] = assay: Compound was screened in vivo for antidepressant activity by tryptamine seizure potentiation method in rat.; format: functional
# Rattus norvegicus [23] = assay: Compound was tested for beta -adrenergic sensitivity when administered to rats at 10 mg/kg, perorally, twice daily for 10 days.; format: functional; conditions: 240 h, route oral
# Rattus norvegicus [24] = assay: In vivo for the inhibition of muricidal activity. The effective dose (intraperitoneally) required for the activity was determined in rat; format: functional; conditions: ip
# Rattus norvegicus [25] = assay: Compound was tested in vitro for beta -adrenergic sensitivity and administered to rats at 10 mg/kg, perorally, twice daily for 10 days.; format: functional; conditions: 240 h, route oral
# [26] = Mus musculus, ip, read-out: ED50
smiles,measurement,setting,value
c1ccc(C2=NC(c3ccccc3)Cc3ccccc3N2)cc1 (stereo not given),ED50,Mus musculus [1]; [26],> 20 mg/kg
CCCN1C(C)=Nc2ccccc2CC1c1ccccc1 (stereo not given),ED50,Mus musculus [1]; [26],> 5 mg/kg
CCC1=Nc2ccccc2CC(c2ccccc2)N1C (stereo not given),ED50,Mus musculus [1]; [26],0.6 mg/kg
CN1C(c2ccccc2)=Nc2ccccc2CC1c1ccccc1 (stereo not given),ED50,Mus musculus [1]; [26],> 20 mg/kg
CC1=NC(c2ccccc2)Cc2ccccc2N1c1ccccc1 (stereo not given),ED50,Mus musculus [1]; [26],> 20 mg/kg
CC1=NC(c2ccccc2)Cc2ccccc2N1C (stereo not given),ED50,Mus musculus [1]; [26],> 20 mg/kg
CC1=Nc2ccccc2CC(c2ccccc2)N1CC1CCCCC1 (stereo not given),ED50,Mus musculus [1]; [26],~20 mg/kg
CC1=Nc2ccccc2CC(c2ccccc2)N1Cc1ccccc1 (stereo not given),ED50,Mus musculus [1]; [26],> 20 mg/kg
c1ccc(C2Cc3ccccc3NC(C3CC3)=N2)cc1 (stereo not given),ED50,Mus musculus [1]; [26],> 20 mg/kg
CNC(Cc1ccccc1[N+](=O)[O-])c1ccccc1 (stereo not given),ED50,Mus musculus [2],> 40 mg/kg
same,ED50,Mus musculus [3],> 20 mg/kg
same,ED50,Rattus norvegicus [4],> 10 mg/kg
CC(=O)C(Cc1ccccc1NCN1C(=O)CCC1=O)c1ccccc1 (stereo not given),ED50,Mus musculus [2],> 40 mg/kg
same,ED50,Mus musculus [5],> 20 mg/kg
same,ED50,Mus musculus [3],> 20 mg/kg
same,ED50,Rattus norvegicus [4],> 10 mg/kg
CN1C=Nc2ccccc2CC1c1ccccc1 (stereo not given),ED50,Mus musculus [1]; [26],9.7 mg/kg
CCN1C(C)=Nc2ccccc2CC1c1ccccc1 (stereo not given),ED50,Mus musculus [1]; [26],~20 mg/kg
C1=NC(c2ccccc2)Cc2ccccc2N1 (stereo not given),ED50,Mus musculus [1]; [26],~20 mg/kg
CCCC1=Nc2ccccc2CC(c2ccccc2)N1C (stereo not given),ED50,Mus musculus [1]; [26],> 20 mg/kg
CCC1=NC(c2ccccc2)Cc2ccccc2N1 (stereo not given),ED50,Mus musculus [1]; [26],> 5 mg/kg
CC1=NC(c2ccccc2)Cc2ccccc2N1 (stereo not given),ED50,Mus musculus [1]; [26],> 20 mg/kg
CN1C(C2CC2)=Nc2ccccc2CC1c1ccccc1 (stereo not given),ED50,Mus musculus [1]; [26],> 20 mg/kg
CN(C)CCC=C1c2ccccc2CCc2ccccc21 [AMITRIPTYLINE],ED50,Mus musculus [6],9.6 mg/kg
same,ED50,Mus musculus [7],1.3 mg/kg
same,ED50,Mus musculus [8],> 5 mg/kg
same,ED50,Mus musculus [9],1.9 mg/kg
same,ED50,Mus musculus [10],8 mg/kg
same,ED50,Mus musculus [1]; [26],1.5 mg/kg
same,IC50,[11],3 µM
same,IC50,Rattus norvegicus [12],14 µM
same,IC50,Rattus norvegicus [13],4.7 µM
same,IC50,Rattus norvegicus [14],2 µM
same,ED50,Rattus norvegicus [15],7.1 mg/kg
CC1=Nc2ccccc2CC(c2ccccc2)N1C.Cl (stereo not given) [DAZEPINIL HYDROCHLORIDE],ED50,Mus musculus [7],> 25 mg/kg
same,ED50,Mus musculus [8],> 25 mg/kg
same,ED50,Mus musculus [16],5.9 mg/kg
same,ED50,Mus musculus [1],2.1 mg/kg
same,ED50,Mus musculus [1]; [26],1.5 mg/kg
same,ED50,Rattus norvegicus [17],> 20 mg/kg
same,IC50,Rattus norvegicus [18],5.3 µM
same,IC50,Rattus norvegicus [19],0.9 µM
same,IC50,Rattus norvegicus [20],1.7 µM
same,IC50,Rattus norvegicus [14],8.4 µM
same,ED50,Rattus norvegicus [21],> 10 mg/kg
same,ED50,Rattus norvegicus [22],> 25 mg/kg
same,inhibition in vivo at 10 mg/kg,Rattus norvegicus [23],-44%
CNCCCN1c2ccccc2CCc2ccccc21 [DESIPRAMINE],ED50,Rattus norvegicus [24],8.2 mg/kg
same,ED50,Rattus norvegicus [22],> 25 mg/kg
same,inhibition in vivo at 10 mg/kg,Rattus norvegicus [25],-50%
